Laboratory results reported in patent US12121500B2, “Inhibitors of Bunyaviridae and uses thereof” (priority 2020, dated 2024).
pEC50, pIC50: −log10 of the molar value. ≈ marks a conversion by molar mass, not a printed value. Where two headings read alike, the source gives them in different places.

What was measured:
RVFV strain MP12 = test: microbe, parasite or virus in culture; format: cell-based, Rift Valley Fever Virus; conditions: for pEC50: Rift Valley fever virus, Vero, read-out: Estimated EC50
in vitro [1] = conditions: African green monkey
RVFV [2] = test: microbe, parasite or virus in culture; format: cell-based, Rift Valley Fever Virus; conditions: for EC50: Rift Valley fever virus, Vero, 24 h, read-out: RVFV (EC50, μM)
human ribonuclease H1 = molecular target: T1, human ribonuclease H1 (Homo sapiens, UniProt O60930); test: biochemical; format: biochemical
T1 construct: made in house; host or cells: E. coli
T1 sequence (O60930 1-286): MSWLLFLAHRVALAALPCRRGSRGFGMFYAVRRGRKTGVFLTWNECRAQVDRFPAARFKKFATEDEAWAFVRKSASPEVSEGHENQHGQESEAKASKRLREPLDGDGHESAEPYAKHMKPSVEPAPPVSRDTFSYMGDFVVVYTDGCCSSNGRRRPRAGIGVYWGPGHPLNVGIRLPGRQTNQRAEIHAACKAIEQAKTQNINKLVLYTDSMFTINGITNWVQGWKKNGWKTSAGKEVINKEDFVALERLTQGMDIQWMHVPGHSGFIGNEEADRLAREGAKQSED

C. neoformans = test: Inhibition of C. neoformans growth, limiting dilution assay; format: cell-based, Cryptococcus neoformans; conditions: Cryptococcus neoformans
[3] = Quantitative cytotoxicity in Vero cells, crystal violet staining of EC50 plates; conditions: African green monkey
Staphylococcus spp. = test: Inhibition of Staphylococcus spp. growth, broth microdilution; format: cell-based, S. saprophyticus or S. aureus; conditions: Staphylococcus; 16-24 hours, Mueller-Hinton broth; — = no measurable MIC80
Escherichia coli = test: Inhibition of Escherichia coli growth, broth microdilution; format: cell-based; conditions: Escherichia coli; 16-24 hours, Mueller-Hinton broth; — = inactive; read-out: E. coli (MIC80)
RVFV [4] = test: microbe, parasite or virus in culture; format: cell-based, Rift Valley Fever Virus; conditions: Rift Valley fever virus, A549, 24 h
in vitro [5] = conditions: human
[6] = Cytotoxicity in HepDES19 cells, MTS assay; conditions: human
[7] = 48 hours at 35° C., YNB-02, read-out: C. neoformans (MIC80)
[8] = HepDES19 cells (HepG2-derived hepatoblastoma cell line)
[9] = 48 h, read-out: C. neoformans (MIC80, μM)

Row | SMILES | pEC50 (RVFV strain MP12) | CC50 (in vitro [1]) | EC50 (RVFV [2]) | MIC80 (C. neoformans; [7]) | CC50 at 1 day [3] | pIC50 (human ribonuclease H1) | CC50 at 3 days [6, 8] | other results
1 | Cc1cc(O)c(=O)c(O)cc1C(=O)N1CCN(c2ccc([N+](=O)[O-])c3nonc23)CC1 [Compound 920] | 4.72 | ≥ 120 µM |  |  |  |  |  | 
2 | O=C(O)CC(=O)CC(=O)c1cccs1 [Compound 129, reference compound] | ≤ 3.92 |  |  |  |  |  |  | 
3 | Cc1cc(O)c(=O)c(O)cc1S(=O)(=O)c1ccccc1 [Compound 336] | 5.52 |  | 9 µM | 50 µM (≈ 14.6 µg/mL) | 65.8 µM |  |  | pIC50 (human ribonuclease H1; read-out: Human RNaseH1 (IC50)): 4.07
4 | CC(C)c1ccc(O)c(=O)c(O)c1 [Compound 46, β-thujaplicinol] |  |  | 13.8 µM | 8 µM (≈ 1.44 µg/mL) | > 250 µM |  |  | MIC80 (Staphylococcus spp.): 20 µM (≈ 3.6 µg/mL); MIC80 (Escherichia coli): 44 µM (≈ 7.93 µg/mL)
5 | CC(C)c1cccc(=O)c(O)c1 [Compound 47, β-thujaplicin, reference compound] | ≤ 3.92 |  |  |  |  |  |  | activity against RVFV in the primary screen, in words (RVFV strain MP12): inactive
6 | CCCCCCSc1cccc(O)c(=O)c1O [Compound 840] | 4.85 | ≥ 120 µM | 31.6 µM | 1 µM (≈ 0.254 µg/mL) | > 120 µM | 4.14 | 21.5 µM | pEC50 (RVFV [4]): 4.81; CC50 (in vitro [5]): ≥ 120 µM
7 | CC1=CC(O)N(O)C(O)=C1/C(C)=N/c1ccccc1N (stereo not shown) [Compound 208] | 4.85 | ≥ 120 µM | > 120 µM |  | > 250 µM | 3.71 |  | MIC80 (C. neoformans; [9]): 30 µM (≈ 8.26 µg/mL); CC50 at 3 days [6]: 14.4 µM
8 | CC(=O)c1c(C)cc(O)c(=O)c(O)c1-c1cccc2ccccc12 [Compound 331] | 5.70 |  | 15.8 µM | 11 µM (≈ 3.52 µg/mL) | 80.4 µM | 3.35 | 36.6 µM | MIC80 (Staphylococcus spp.): 67 µM (≈ 21.5 µg/mL); pEC50 (RVFV [4]): 4.75; CC50 (in vitro [5]): ≥ 120 µM
9 | C/C(=N\c1cccc(Oc2ccccc2)c1)c1c(C)cc(=O)n(O)c1O [Compound 515] | 4.85 | ≥ 120 µM | 24.3 µM | 11 µM (≈ 3.85 µg/mL) | > 120 µM | 3.21 | 71.3 µM | pEC50 (RVFV [4]): ≤ 3.92; CC50 (in vitro [5]): 93.6 µM
10 | Cc1cc(O)c(=O)c(O)cc1C(=O)N1CCN(C(=O)C2COc3ccccc3O2)CC1 (stereo not shown) [Compound 876] |  | ≥ 120 µM |  |  |  |  |  | 
11 | COc1ccc(CO/N=C(\C)c2c[nH]c(=O)[nH]c2=O)cc1 [Compound 522] | ≤ 3.92 | 1 µM |  |  |  |  |  | 
12 | CC(C)c1ccc(O)c(=O)cc1 [Compound 48, γ-thujaplicin, reference compound] | ≤ 3.92 |  |  |  |  |  |  | activity against RVFV in the primary screen, in words (RVFV strain MP12): inactive
13 | Cc1cc(O)c(=O)c(O)cc1C(=O)c1ccccc1 [Compound 111] |  |  | 19 µM | 36 µM (≈ 9.23 µg/mL) | > 250 µM | 4.32 |  | 
14 | Cc1ccc(Sc2cccc(O)c(=O)c2O)cc1 [Compound 838] | 5.10 | 86 µM | 12.7 µM | 1 µM (≈ 0.26 µg/mL) | > 300 µM | 4.00 | 18.6 µM | 
15 | C/C(=N\c1ccccc1Cl)c1c(C)cc(O)n(O)c1=O [Compound 668] | 4.96 | ≥ 120 µM | 14 to 20 µM |  | > 120 µM | 3.78 | 76.8 µM | pEC50 (RVFV [2]; read-out: RVFV (EC50)): 4.72; pEC50 (RVFV [4]): 4.45; CC50 (in vitro [5]): 82 µM
16 | COc1ccc(Cl)cc1C(=O)Sc1cccccc1=O [Compound 681] | ≤ 3.92 | 2 µM |  |  |  |  |  | 
17 | CCCCNC(=O)c1cc(O)c(=O)c(O)cc1C [Compound 1039] | 5.22 | ≥ 120 µM | 8.9 µM | 12 µM (≈ 3.02 µg/mL) | > 120 µM |  |  | pEC50 (RVFV [4]): 4.81; CC50 (in vitro [5]): ≥ 120 µM
18 | Cc1ccc(O)c(=O)c(O)c1 [Compound 210] | 5.10 | ≥ 120 µM | 14.6 µM | 15 µM (≈ 2.28 µg/mL) | 283 µM | 4.07 |  | 
19 | Cc1ccc(CNC(=O)c2cc(O)c(=O)c(O)cc2C)c(C)c1 [Compound 809] | 4.77 | 64 µM |  |  |  |  |  | 
20 | Cc1cc(O)c(=O)c(O)cc1C(=O)C1CCCCC1 [Compound 120] |  |  | 15.6 µM | 12 µM (≈ 3.15 µg/mL) | > 250 µM | 4.09 |  | 
21 | Cc1cc(O)c(=O)c(O)cc1C(=O)N1CCCCC1 [Compound 390] | 7.00 |  | 11.9 µM | 11 µM (≈ 2.9 µg/mL) | > 250 µM | 3.97 | 29.8 µM | activity against RVFV in the primary screen, in words (RVFV strain MP12): active; pEC50 (RVFV [4]): 5.03; CC50 (in vitro [5]): ≥ 120 µM

Row | SMILES | pEC50 (RVFV strain MP12) | CC50 (in vitro [1]) | EC50 (RVFV [2]) | MIC80 (C. neoformans; [7]) | CC50 at 1 day [3] | pIC50 (human ribonuclease H1) | CC50 at 3 days [6, 8] | other results
22 | CCOC(=O)c1sc(NC(=O)CSc2nnc(Cc3ccccc3)o2)c(C#N)c1C [Compound 6, reference compound] | ≤ 3.92 |  |  |  |  |  |  | 
23 | COC(=O)c1c(C)cc(O)c(=O)c(O)c1O [Compound 196] |  |  | 23.9 µM |  | > 250 µM | 3.39 | 6 µM | MIC80 (Staphylococcus spp.): 67 µM (≈ 15.2 µg/mL)
24 | C/C(=N\c1ccccc1F)c1c(C)cc(=O)n(O)c1O [Compound 516] | 4.72 | ≥ 120 µM |  |  |  |  |  | 
25 | CC(=O)c1c(C)cc(O)c(=O)c(O)c1Br [Compound 320] | 5.70 |  | 20.1 µM | 49 µM (≈ 13.4 µg/mL) | > 120 µM | 4.43 | 49.5 µM | pEC50 (RVFV [4]): 4.04; CC50 (in vitro [5]): ≥ 120 µM
26 | CC(=O)c1c(C)cc(O)c(=O)c(O)c1-c1ccccc1 [Compound 330] | 5.70 |  | 9.5 µM | 4 µM (≈ 1.08 µg/mL) | > 300 µM | 3.32 | 56.2 µM | MIC80 (Staphylococcus spp.): 44 µM (≈ 11.9 µg/mL); pEC50 (RVFV [4]): 4.37; CC50 (in vitro [5]): ≥ 120 µM
27 | CSc1cccc(O)c(=O)c1O [Compound 385] |  |  | 25.2 µM | 24 µM (≈ 4.42 µg/mL) | > 250 µM | 3.75 | > 100 µM | 
28 | O=c1c(O)c(-c2ccc(O)c(O)c2)oc2cc(O)c(O)c(O)c12 [Compound 7, Quercetagetin, reference compound] | ≤ 3.92 |  |  |  |  |  |  | 
29 | COC(=O)c1c(C)cc(O)c(=O)c(O)c1Br [Compound 335] | 5.52 |  | 40.8 µM |  | > 120 µM | 3.95 |  | MIC80 (C. neoformans; [9]): 50 µM (≈ 14.5 µg/mL); pEC50 (RVFV [4]): ≤ 3.92; CC50 (in vitro [5]): 96.2 µM
30 | O=c1c(O)ccc(-c2ccco2)cc1O [Compound 265] |  |  | 15.4 µM | 11 µM (≈ 2.25 µg/mL) | > 250 µM | 4.24 |  | MIC80 (Staphylococcus spp.): 30 µM (≈ 6.13 µg/mL)
31 | C/C(=N\c1ccc(C(F)(F)F)cc1)c1c(C)cc(=O)n(O)c1O [Compound 517] | 4.89 | ≥ 120 µM | > 120 µM | 24 µM (≈ 7.83 µg/mL) | > 120 µM | 3.87 | 91 µM | pEC50 (RVFV [4]): 4.02; CC50 (in vitro [5]): 71.8 µM
32 | O=C1c2ccccc2C(=O)N1O [Compound 138, reference compound] | ≤ 3.92 |  |  |  |  |  |  | 
33 | O=C1C=CC(=O)c2ccccc21 [Compound 327] | 5.70 |  | 39.7 µM | 9.1 µM (≈ 1.44 µg/mL) | 42.9 µM | 4.33 | 18.5 µM | pEC50 (RVFV [4]): 4.71; CC50 (in vitro [5]): 27.5 µM
34 | CC(=O)c1c(C)cc(O)c(=O)c(O)c1Cl [Compound 368] |  |  | 25.4 µM | 24 µM (≈ 5.49 µg/mL) | > 250 µM | 3.94 | 31 µM | 
35 | NC(=O)c1c(N)sc2c1CCCCC2 [Compound 22, reference compound] | ≤ 3.92 |  |  |  |  |  |  | 
36 | Cc1cc(O)c(=O)c(O)cc1-c1ccc(-c2cccc3ccccc23)cc1 [Compound 234] | 4.72 | ≥ 120 µM |  |  |  |  |  | 
37 | Cc1cc(O)c(=O)c(O)cc1C(=O)c1ccc(Br)cc1 [Compound 358] |  |  | 9 µM | 11 µM (≈ 3.69 µg/mL) | > 250 µM | 4.37 | 12.5 µM | MIC80 (Escherichia coli): 20 µM (≈ 6.7 µg/mL)
38 | Cc1cc(O)c(=O)c(O)cc1C(=O)c1ccc(-c2ccccc2)cc1 [Compound 118] |  |  | 11 µM | 15 µM (≈ 4.99 µg/mL) | 248 µM | < 3.30 |  | 
39 | Cc1cc(O)c(=O)c(O)cc1-c1ccccc1 [Compound 113] |  |  | 10.3 µM | 24 µM (≈ 5.48 µg/mL) | > 250 µM | 3.76 |  | 
40 | Cc1cc(O)c(=O)c(O)cc1C(=O)Nc1cccc(OCc2ccccc2)c1 [Compound 836] | 4.89 | ≥ 120 µM |  |  |  |  |  | 
41 | Cc1cc(O)c(=O)c(O)cc1C(=O)NCc1ccc(N2CCCC2)cc1 [Compound 1019] | 4.72 | ≥ 120 µM |  |  |  |  |  | 
42 | Cc1cc(O)c(=O)c(O)cc1C(=O)NCc1ccc(-c2ccccc2)cc1 [Compound 539] | 5.00 | 71 µM | 18.6 µM | 4.5 µM (≈ 1.63 µg/mL) | > 300 µM | 3.98 | 3.6 µM | MIC80 (Staphylococcus spp.): 38 µM (≈ 13.7 µg/mL)
